# System: Stress protein genes
# Assay: DNA chip mRNA expression in yeast, stress protein genes (Table 6)
# Type: cell-based, Saccharomyces cerevisiae S288C
# Method in brief: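 Values are treated/untreated fluorescence ratios from a whole-genome yeast DNA chip hybridized over 12 hours at 65° C with Cy3- or Cy5-labelled cDNA from poly(A) mRNA. Log-phase S288C yeast in YPD at 25° C had received a single toxic chemical for two hours, dosed to slow growth without killing.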
substance,measurement,setting,value
manganese ethylenebis(dithiocarbamate) [(8)],The level of expressed mRNA in the presence of chemical substance/The level of expressed mRNA in the absence of chemical substance,yeast gene YAL005C,0.9
same,The level of expressed mRNA in the presence of chemical substance/The level of expressed mRNA in the absence of chemical substance,yeast gene YAL015C,1.1
same,The level of expressed mRNA in the presence of chemical substance/The level of expressed mRNA in the absence of chemical substance,yeast gene YBL075C,0.8
same,The level of expressed mRNA in the presence of chemical substance/The level of expressed mRNA in the absence of chemical substance,yeast gene YBL093C,1.6
same,The level of expressed mRNA in the presence of chemical substance/The level of expressed mRNA in the absence of chemical substance,yeast gene YBR044C,1.1
same,The level of expressed mRNA in the presence of chemical substance/The level of expressed mRNA in the absence of chemical substance,yeast gene YBR054W,2.1
same,The level of expressed mRNA in the presence of chemical substance/The level of expressed mRNA in the absence of chemical substance,yeast gene YBR067C,1.1
same,The level of expressed mRNA in the presence of chemical substance/The level of expressed mRNA in the absence of chemical substance,yeast gene YBR072W,2.1
same,The level of expressed mRNA in the presence of chemical substance/The level of expressed mRNA in the absence of chemical substance,yeast gene YBR126C,0.6
same,The level of expressed mRNA in the presence of chemical substance/The level of expressed mRNA in the absence of chemical substance,yeast gene YBR169C,0.9
same,The level of expressed mRNA in the presence of chemical substance/The level of expressed mRNA in the absence of chemical substance,yeast gene YCL035C,1.4
same,The level of expressed mRNA in the presence of chemical substance/The level of expressed mRNA in the absence of chemical substance,yeast gene YCR021C,0.8
same,The level of expressed mRNA in the presence of chemical substance/The level of expressed mRNA in the absence of chemical substance,yeast gene YCR060W,1.2
same,The level of expressed mRNA in the presence of chemical substance/The level of expressed mRNA in the absence of chemical substance,yeast gene YCR083W,1.5
same,The level of expressed mRNA in the presence of chemical substance/The level of expressed mRNA in the absence of chemical substance,yeast gene YDL022W,0.8
same,The level of expressed mRNA in the presence of chemical substance/The level of expressed mRNA in the absence of chemical substance,yeast gene YDL025C,1.1
same,The level of expressed mRNA in the presence of chemical substance/The level of expressed mRNA in the absence of chemical substance,yeast gene YDR033W,1.0
same,The level of expressed mRNA in the presence of chemical substance/The level of expressed mRNA in the absence of chemical substance,yeast gene YDR077W,0.8
same,The level of expressed mRNA in the presence of chemical substance/The level of expressed mRNA in the absence of chemical substance,yeast gene YDR098C,1.2
same,The level of expressed mRNA in the presence of chemical substance/The level of expressed mRNA in the absence of chemical substance,yeast gene YDR155C,1.4
same,The level of expressed mRNA in the presence of chemical substance/The level of expressed mRNA in the absence of chemical substance,yeast gene YDR258C,1.9
same,The level of expressed mRNA in the presence of chemical substance/The level of expressed mRNA in the absence of chemical substance,yeast gene YDR293C,0.6
same,The level of expressed mRNA in the presence of chemical substance/The level of expressed mRNA in the absence of chemical substance,yeast gene YDR436W,0.9
same,The level of expressed mRNA in the presence of chemical substance/The level of expressed mRNA in the absence of chemical substance,yeast gene YDR513W,1.6
same,The level of expressed mRNA in the presence of chemical substance/The level of expressed mRNA in the absence of chemical substance,yeast gene YDR519W,1.4
same,The level of expressed mRNA in the presence of chemical substance/The level of expressed mRNA in the absence of chemical substance,yeast gene YEL030W,0.7
same,The level of expressed mRNA in the presence of chemical substance/The level of expressed mRNA in the absence of chemical substance,yeast gene YEL039C,1.1
same,The level of expressed mRNA in the presence of chemical substance/The level of expressed mRNA in the absence of chemical substance,yeast gene YER042W,1.7
same,The level of expressed mRNA in the presence of chemical substance/The level of expressed mRNA in the absence of chemical substance,yeast gene YER057C,1.0
same,The level of expressed mRNA in the presence of chemical substance/The level of expressed mRNA in the absence of chemical substance,yeast gene YER103W,0.9
same,The level of expressed mRNA in the presence of chemical substance/The level of expressed mRNA in the absence of chemical substance,yeast gene YER125W,0.7
same,The level of expressed mRNA in the presence of chemical substance/The level of expressed mRNA in the absence of chemical substance,yeast gene YFL014W,3.4
same,The level of expressed mRNA in the presence of chemical substance/The level of expressed mRNA in the absence of chemical substance,yeast gene YFL016C,0.7
same,The level of expressed mRNA in the presence of chemical substance/The level of expressed mRNA in the absence of chemical substance,yeast gene YFL020C,0.7
same,The level of expressed mRNA in the presence of chemical substance/The level of expressed mRNA in the absence of chemical substance,yeast gene YFR052W,1.5
same,The level of expressed mRNA in the presence of chemical substance/The level of expressed mRNA in the absence of chemical substance,yeast gene YGL073W,0.8
same,The level of expressed mRNA in the presence of chemical substance/The level of expressed mRNA in the absence of chemical substance,yeast gene YGL115W,1.0
same,The level of expressed mRNA in the presence of chemical substance/The level of expressed mRNA in the absence of chemical substance,yeast gene YGL181W,1.2
same,The level of expressed mRNA in the presence of chemical substance/The level of expressed mRNA in the absence of chemical substance,yeast gene YGR088W,0.8
same,The level of expressed mRNA in the presence of chemical substance/The level of expressed mRNA in the absence of chemical substance,yeast gene YHL028W,0.4
same,The level of expressed mRNA in the presence of chemical substance/The level of expressed mRNA in the absence of chemical substance,yeast gene YHL046C,1.0
same,The level of expressed mRNA in the presence of chemical substance/The level of expressed mRNA in the absence of chemical substance,yeast gene YHR030C,1.5
same,The level of expressed mRNA in the presence of chemical substance/The level of expressed mRNA in the absence of chemical substance,yeast gene YHR057C,1.0
same,The level of expressed mRNA in the presence of chemical substance/The level of expressed mRNA in the absence of chemical substance,yeast gene YHR104W,1.1
same,The level of expressed mRNA in the presence of chemical substance/The level of expressed mRNA in the absence of chemical substance,yeast gene YIL011W,0.7
same,The level of expressed mRNA in the presence of chemical substance/The level of expressed mRNA in the absence of chemical substance,yeast gene YIL033C,0.7
same,The level of expressed mRNA in the presence of chemical substance/The level of expressed mRNA in the absence of chemical substance,yeast gene YIR037W,1.3
same,The level of expressed mRNA in the presence of chemical substance/The level of expressed mRNA in the absence of chemical substance,yeast gene YIR038C,1.3
same,The level of expressed mRNA in the presence of chemical substance/The level of expressed mRNA in the absence of chemical substance,yeast gene YJL128C,0.9
same,The level of expressed mRNA in the presence of chemical substance/The level of expressed mRNA in the absence of chemical substance,yeast gene YJL158C,0.7
same,The level of expressed mRNA in the presence of chemical substance/The level of expressed mRNA in the absence of chemical substance,yeast gene YJL159W,0.8
same,The level of expressed mRNA in the presence of chemical substance/The level of expressed mRNA in the absence of chemical substance,yeast gene YJL165C,0.7
same,The level of expressed mRNA in the presence of chemical substance/The level of expressed mRNA in the absence of chemical substance,yeast gene YJR045C,0.8
same,The level of expressed mRNA in the presence of chemical substance/The level of expressed mRNA in the absence of chemical substance,yeast gene YJR090C,0.8
same,The level of expressed mRNA in the presence of chemical substance/The level of expressed mRNA in the absence of chemical substance,yeast gene YKL161C,1.9
same,The level of expressed mRNA in the presence of chemical substance/The level of expressed mRNA in the absence of chemical substance,yeast gene YKL163W,0.8
same,The level of expressed mRNA in the presence of chemical substance/The level of expressed mRNA in the absence of chemical substance,yeast gene YKL164C,0.8
same,The level of expressed mRNA in the presence of chemical substance/The level of expressed mRNA in the absence of chemical substance,yeast gene YKL210W,0.9
same,The level of expressed mRNA in the presence of chemical substance/The level of expressed mRNA in the absence of chemical substance,yeast gene YKR053C,0.9
same,The level of expressed mRNA in the presence of chemical substance/The level of expressed mRNA in the absence of chemical substance,yeast gene YLL024C,0.7
same,The level of expressed mRNA in the presence of chemical substance/The level of expressed mRNA in the absence of chemical substance,yeast gene YLL026W,1.4
same,The level of expressed mRNA in the presence of chemical substance/The level of expressed mRNA in the absence of chemical substance,yeast gene YLL039C,1.1
same,The level of expressed mRNA in the presence of chemical substance/The level of expressed mRNA in the absence of chemical substance,yeast gene YLL060C,5.8
same,The level of expressed mRNA in the presence of chemical substance/The level of expressed mRNA in the absence of chemical substance,yeast gene YLR006C,0.9
same,The level of expressed mRNA in the presence of chemical substance/The level of expressed mRNA in the absence of chemical substance,yeast gene YLR109W,0.9
same,The level of expressed mRNA in the presence of chemical substance/The level of expressed mRNA in the absence of chemical substance,yeast gene YLR259C,0.8
same,The level of expressed mRNA in the presence of chemical substance/The level of expressed mRNA in the absence of chemical substance,yeast gene YML007W,1.9
same,The level of expressed mRNA in the presence of chemical substance/The level of expressed mRNA in the absence of chemical substance,yeast gene YML070W,1.3
same,The level of expressed mRNA in the presence of chemical substance/The level of expressed mRNA in the absence of chemical substance,yeast gene YMR021C,1.3
same,The level of expressed mRNA in the presence of chemical substance/The level of expressed mRNA in the absence of chemical substance,yeast gene YMR173W,2.3
same,The level of expressed mRNA in the presence of chemical substance/The level of expressed mRNA in the absence of chemical substance,yeast gene YMR186W,0.8
same,The level of expressed mRNA in the presence of chemical substance/The level of expressed mRNA in the absence of chemical substance,yeast gene YNL064C,1.4
same,The level of expressed mRNA in the presence of chemical substance/The level of expressed mRNA in the absence of chemical substance,yeast gene YNL160W,1.2
same,The level of expressed mRNA in the presence of chemical substance/The level of expressed mRNA in the absence of chemical substance,yeast gene YNL241C,0.9
same,The level of expressed mRNA in the presence of chemical substance/The level of expressed mRNA in the absence of chemical substance,yeast gene YNR076W,1.0
same,The level of expressed mRNA in the presence of chemical substance/The level of expressed mRNA in the absence of chemical substance,yeast gene YOL064C,1.0
same,The level of expressed mRNA in the presence of chemical substance/The level of expressed mRNA in the absence of chemical substance,yeast gene YOL161C,0.8
same,The level of expressed mRNA in the presence of chemical substance/The level of expressed mRNA in the absence of chemical substance,yeast gene YOR008C,0.8
same,The level of expressed mRNA in the presence of chemical substance/The level of expressed mRNA in the absence of chemical substance,yeast gene YOR009W,0.7
same,The level of expressed mRNA in the presence of chemical substance/The level of expressed mRNA in the absence of chemical substance,yeast gene YOR010C,0.5
same,The level of expressed mRNA in the presence of chemical substance/The level of expressed mRNA in the absence of chemical substance,yeast gene YOR027W,0.9
same,The level of expressed mRNA in the presence of chemical substance/The level of expressed mRNA in the absence of chemical substance,yeast gene YOR208W,1.0
same,The level of expressed mRNA in the presence of chemical substance/The level of expressed mRNA in the absence of chemical substance,yeast gene YPL059W,1.4
same,The level of expressed mRNA in the presence of chemical substance/The level of expressed mRNA in the absence of chemical substance,yeast gene YPL106C,1.2
same,The level of expressed mRNA in the presence of chemical substance/The level of expressed mRNA in the absence of chemical substance,yeast gene YPL140C,1.1
same,The level of expressed mRNA in the presence of chemical substance/The level of expressed mRNA in the absence of chemical substance,yeast gene YPL194W,1.3
same,The level of expressed mRNA in the presence of chemical substance/The level of expressed mRNA in the absence of chemical substance,yeast gene YPL223C,1.2
same,The level of expressed mRNA in the presence of chemical substance/The level of expressed mRNA in the absence of chemical substance,yeast gene YPL240C,1.2
same,The level of expressed mRNA in the presence of chemical substance/The level of expressed mRNA in the absence of chemical substance,yeast gene YPR005C,1.2
same,The level of expressed mRNA in the presence of chemical substance/The level of expressed mRNA in the absence of chemical substance,yeast gene YPR026W,1.0
